Common to all, as to format: in vivo
In one data set the test system is Digitaria adscendens. The data set can be described thus: Pre-emergence test (Example 6). The note with it: 10 days. On the procedure: Upland soil was put in a pot of 10 cm diameter and the seeds of Digitaria adscendens were sown in the soil surface at a depth of 1 cm. After compacting the soil surface gently, the soil was sprayed evenly with solutions of Phosalacine sodium salt dissolved at different concentrations in water (each 5 ml). 10 days later, the number of emerged seedlings was counted and the percentage inhibition of emergence was evaluated by comparison with untreated plots. For comparison, a similar test was carried out using glyphosate (monosodium salt) instead of Phosalacine salt. The results shown in the following Table indicate that the pre-emergence effect of Phosalacine was better than that of glyphosate.

A further data set deals with Rumex obtusifolius. In words: Foliage treatment with different salts (Example 11). Also noted: key: 0 indicates no effect; 5 indicates complete kill. The note with it: Rumex obtusifolius (Plant No. 14), 1000 liter per hectare. On the procedure: Aqueous solutions containing different salts of Phosalacine at different concentrations as active ingredients and 0.1% of octylphenylpolyoxy ethanol as surfactant were applied at a rate of 1000 liter per hectare to Rumex obtusifolius (Plant No. 14) at a certain stage of growth. 21 days after foliage treatment, damage to the plant was visually assessed on a scale of 0 to 5 as hereinbefore described. The salts used were prepared by the methods described in the reference mentioned above.

A further data set relates to Killifishes (Medaka). In words: Acute toxicity to fish, survival ratio (Example 13). To be noted: killifish. On the procedure:
Killifishes (Japanese name, Medaka), were obtained from a market and maintained in a water bath at 25±2° C. for a week. Then the fishes (each group consisting of 10 fishes) were placed in water baths containing the test compounds at given concentrations as shown in the following Table. 24 and 48 hours after this, the survival ratio (%) of each group was visually counted to assess the acute toxity.

Data on one molecule can be found in patent publication US4613355A, “Antibiotic having herbicidal activity” (Satoshi Omura, priority 1983, dated 1986).

Counter-ions that a name gives are not always drawn.

For `CC(C)C[C@H](NC(=O)[C@H](C)NC(=O)[C@@H](N)CCP(C)(=O)O)C(=O)O` [Phosalacine (Na salt)], the entries for the “Percent inhibition of emergence” value in the data set on Digitaria adscendens (500 g/ha), in the data set on Digitaria adscendens (1000 g/ha) and in the data set on Digitaria adscendens (2500 g/ha) were 80%, 100% and 100%, respectively. Moreover, the entries for the “Damage to plants after 21 days, scale 0 to 5” value in the data set with Rumex obtusifolius (0.05%) and in the data set with Rumex obtusifolius (0.1%) were 3 and 5, respectively. The “Survival ratio (%)” value with Killifishes (Medaka) (20 ppm, 24 hours) is 100%; in the data set with Killifishes (Medaka) (20 ppm, 48 hours), 100%; in the data set with Killifishes (Medaka) (100 ppm, 24 hours) it was 100%; in the data set with Killifishes (Medaka) (100 ppm, 48 hours), 50%; in the data set with Killifishes (Medaka) (500 ppm, 24 hours), 0%; in the data set with Killifishes (Medaka) (500 ppm, 48 hours), 0%.
